# Tests used:
# [1] = Stability experiment for polymorph Form A of Compound 1 (stability chamber); type: physicochemical
# Method: The physical stability of Form A of Compound 1 was determined as follows. Compound 1 prepared according to Preparation Example 3 was analyzed by pXRD, DSC, HPLC and ^1H-NMR and found to be of pure crystal Form A of 99.9% purity (by HPLC peak area at 230 nm detection wavelength). An aliquot of the sample (3.0 g) was placed in a primary polyethylene bag, the primary bag was flushed with nitrogen gas and sealed. The primary polyethylene bag was then placed in a secondary polyethylene bag which was again flushed with nitrogen gas and a silica gel sachet was placed between the inner and the outer bag. The double bagged material was then placed in a triple laminated aluminum pouch and placed in a stability chamber at 40° C. for 30 days. Analysis by HPLC and ^1H-NMR of the resulting material indicated pure Form A of Compound 1 of 99.9% purity (by HPLC peak area at 230 nm).
# [2] = Relative stability experiments: non-competitive and competitive interconversion of crystal forms of Compound 1; type: physicochemical; details: for crystal form of the resulting material (pXRD, DSC, TGA, 1H-NMR): non-competitive, single starting form, refluxed in deionized water at about 95° C. for 3 hours
# Method: The relative stability of various crystal forms of Compound 1 were subjected to non-competitive and competitive interconversion experiments.
# In Example 12a, Form A of Compound 1 (0.4 g) prepared according to Preparation Example 5c was refluxed in deionized water (4 mL) at about 95° C. for 3 hours. The slurry was cooled to 25-30° C., filtered, suction dried for 1 hour and dried in a vacuum oven at 70° C. and 8 kPa absolute pressure for 12 hours.
# (§1) In Example 12b, Form B of Compound 1 (0.4 g) prepared according to Preparation Example 5f was refluxed in deionized water (4 mL) at about 95° C. for 3 hours. The slurry was cooled to 25-30° C., filtered, suction dried for 1 hour and dried in a vacuum oven at 70° C. and 8 kPa absolute pressure for 12 hours. Analysis by pXRD, DSC, TGA and ^1H-NMR of the resulting material indicated Form A.
# as §1, with “12c,” for “12b,”, “D” for “B”, “5g” for “5f”
# as §1, with “12d,” for “12b,”, “TS” for “B”, “(1” for “(0.4”, “1” for “5f”, “(10” for “(4”, “65°” for “70°”
# as §1, with “12e, Form A (0.6 g) and” for “12b,”, “B (0.6 g)” for “B”, “1” for “1 (0.4 g)”, “Examples 5c and 5f, respectively, were blended as solids and” for “Example 5f was”, “(12” for “(4”, “65°” for “70°”
# (§2) In Example 12f, Form B (0.6 g) and Form D (0.6 g) of Compound 1 prepared according to Preparation Examples 5f and 5g, respectively, were blended as solids and refluxed in deionized water (12 mL) at about 95° C. for 3 hours. The slurry was cooled to 25-30° C., filtered, suction dried for 1 hour and dried in a vacuum oven at 65° C. and 8 kPa absolute pressure for 12 hours. Analysis by pXRD, DSC and ^1H-NMR of the resulting material indicated Form A.
# as §2, with “12g,” for “12f,”, “A” for “B”, “5c” for “5f”
# as §2, with “12h, Form A (0.25 g),” for “12f,”, “(0.25 g), Form D (0.25” for “(0.6”, “TS (0.25” for “D (0.6”, “5c, 5f, 5g,” for “5f”, “1,” for “5g,”, “(10” for “(12”
# In Example 12i, Form A (0.25 g), Form B (0.25 g), Form D (0.25 g) and mixed Forms A and B (0.25 g) of Compound 1 prepared according to Preparation Examples 5c, 5f, 5g and 2, respectively, were blended as solids and refluxed in deionized water (10 mL) at about 95° C. for 3 hours. The slurry was cooled to 25-30° C., filtered, suction dried for 1 hour and dried in a vacuum oven at 65° C. and 8 kPa absolute pressure for 12 hours. Analysis by pXRD, DSC and ^1H-NMR of the resulting material indicated Form A. […]
# [3] = Example 12e, competitive: Form A + Form B blended, deionized water, about 95° C., 3 hours
# [4] = Example 12g, competitive: Form A + Form D blended, deionized water, about 95° C., 3 hours
# [5] = Example 12i, competitive: Forms A, B, D and mixed Forms A and B blended, deionized water, about 95° C., 3 hours
# [6] = Example 12j, competitive: Forms A, B, D and mixed Forms A and B blended, methanol, about 55° C., 3 hours
# [7] = Example 12k, competitive: Forms A, B and D blended, deionized water, about 55° C., 168 hours
# [8] = Example 12h, competitive: Forms A, B, D and TS blended, deionized water, about 95° C., 3 hours
# [9] = Example 12f, competitive: Form B + Form D blended, deionized water, about 95° C., 3 hours
Compound,crystal form after storage (pXRD and DSC) ([1]; 40° C. for 30 days),"purity after storage (HPLC peak area at 230 nm) ([1]; 40° C. for 30 days, sealed under nitrogen in double polyethylene bag and aluminum pouch) [%]","physical and chemical stability, in words ([1]; pure solid form)","crystal form of the resulting material [2, 3]","crystal form of the resulting material [2, 4]","crystal form of the resulting material [2, 5]","crystal form of the resulting material [2, 6]","crystal form of the resulting material [2, 7]","crystal form of the resulting material [2, 8]","crystal form of the resulting material (pXRD, DSC, TGA, 1H-NMR) [2]","relative thermodynamic stability of the solid forms, in words ([2]; under the conditions studied)","crystal form of the resulting material [2, 9]",crystal form of the resulting material ([2]; Example 12l: slurry in deionized water stirred at 25° C. for about 168 hours)
"COc1ccc(Cl)c(S(=O)(=O)NC(=O)c2cn3cc(C(F)(F)F)cc(Cl)c3n2)c1 [Form A, 8-chloro-N-[(2-chloro-5-methoxyphenyl)sulfonyl]-6-(trifluoromethyl)-imidazo[1,2-a]pyridine-2-carboxamide]",pure polymorph Form A,99.9,physically and chemically stable,Form A,Form A,Form A,Form A,Form A,Form A,"remained unchanged, i.e. Form A",most thermodynamically stable polymorph form,–,–
"COc1ccc(Cl)c(S(=O)(=O)NC(=O)c2cn3cc(C(F)(F)F)cc(Cl)c3n2)c1 [Form B, 8-chloro-N-[(2-chloro-5-methoxyphenyl)sulfonyl]-6-(trifluoromethyl)-imidazo[1,2-a]pyridine-2-carboxamide]",–,–,–,Form A,–,Form A,Form A,Form A,Form A,Form A,–,Form A,–
"COc1ccc(Cl)c(S(=O)(=O)NC(=O)c2cn3cc(C(F)(F)F)cc(Cl)c3n2)c1 [Form D, 8-chloro-N-[(2-chloro-5-methoxyphenyl)sulfonyl]-6-(trifluoromethyl)-imidazo[1,2-a]pyridine-2-carboxamide]",–,–,–,–,Form A,Form A,Form A,Form A,Form A,Form A,–,Form A,–
"COc1ccc(Cl)c(S(=O)(=O)NC(=O)c2cn3cc(C(F)(F)F)cc(Cl)c3n2)c1 [Form TS, 8-chloro-N-[(2-chloro-5-methoxyphenyl)sulfonyl]-6-(trifluoromethyl)-imidazo[1,2-a]pyridine-2-carboxamide]",–,–,–,–,–,–,–,–,Form A,Form A,–,–,–
"COc1ccc(Cl)c(S(=O)(=O)NC(=O)c2cn3cc(C(F)(F)F)cc(Cl)c3n2)c1 [mixed Forms A and B, 8-chloro-N-[(2-chloro-5-methoxyphenyl)sulfonyl]-6-(trifluoromethyl)-imidazo[1,2-a]pyridine-2-carboxamide]",–,–,–,–,–,Form A,Form A,–,–,–,–,–,Form A

# — patent US9040554B2, “Solid forms of nematocidal sulfonamides” (priority 2011, dated 2015)
